Results reported in EP3381897A1, “DERIVATIVES OF THE DISODIUM 2,2'-{CARBONYLBIS[IMINO-3,1-PHENYLENECARBONYLIMINO(1-METHYL-1H-PYRROLE-4,2-DIYL)CARBONYLIMINO]}DINAPHTHALENE-1,5-DISULFONATE SALT AND RELATED COMPOUNDS AS HEPARANASE INHIBITORS FOR THE TREATMENT OF CANCER” (Leadiant Biosciences SA, priority 2017, dated 2018).
Counter-ions that a name gives are not always drawn.

What was measured:
[1] = test system: HT1080 (human fibrosarcoma); test: Cell adhesion assay on matrigel coated wells; assay type: cell-based; details: percent of adhesion with respect to the control (100%)
Method: Cell surface, non-integrin molecules such as heparan sulfate proteoglycans (HSPGs) may be involved in the regulation of early adhesive stages of cell-ECM interactions. A cell adhesion assay has been employed to determine if the newly designed heparanase inhibitors were able to interfere with adhesion properties of cancer cells. […] Then cells were collected, washed in complete medium, and added to matrigel coated wells in triplicate, at previously identified optimal seeding density, and incubated at 37 °C in complete medium for times ranging from 15 minutes to 4h, according to the cell line. […] Optical density was measured at 560 nm by Victor 3 (Perkin-Elmer) plate analyzer. Each experiment was repeated three times. Table 4. […] In Invasion assay, data were expressed as the percent invasion (range) with respect to cell migration through uncoated insert membrane.

HPSE-1 = details: 2.5µM; HT1080 cells
Method: To evaluate the effect of heparanase inhibitors on the tumor transcription of genes encoding for proangiogenic factors, such as FGF1/2, VEGF, MMP-9, HSPE-1, the relative mRNA levels were analyzed by quantitative Real-Time Quantitative PCR. To perform the assay, HT1080 (human fibrosarcoma) cells were cultured in complete medium containing 10%FCS (fetal calf serum). Cells were plated in 24-well plates and treated at fixed concentration (i.e., highest non-toxic concentration) of test compounds. After 24 h, cells were detached, collected and total RNA extracted by RNeasy Mini Kit (QIAGEN). Following reverse transcription step, FGF1/2, VEGF, MMP-9, HSPE-1 mRNA levels, were quantified by qPCR using the advanced Universal SYBR Green Supermix (Bio Rad) and ABI PRISM 7900HT Thermal Cycler System (Perkin Elmer), according to the manufacturer's instructions. […] Relative levels of RNA were calculated using the ddCt method. Standard curve and sample data were run in duplicate.

FGF-1 = test: Real-Time quantitative PCR of mRNA gene expression in HT1080 cells; assay type: cell-based, human; details: 2.5 uM, 24 h
MMP-9 = test: as above; assay type: cell-based, human; details: 2.5 uM, 24 h
FGF-2 = test: as above; assay type: cell-based, human; details: 2.5 uM, 24 h
VEGF = test: as above; assay type: cell-based, human; details: 2.5 uM, 24 h
[2] = test system: U87MG (human glioblastoma astrocytoma); test: SRB Cell Cytotoxicity Assay; assay type: cell-based
Method: (§1) SRB Cell Cytotoxicity Assay is an assay based upon the quantitative staining of cellular proteins by sulforhodamine B (SRB). This assay can be used for high-throughput drug screening ([…], Nature Protocol. 2006, 1, 112). Sulforhodamine B is an anionic aminoxanthene dye that forms an electrostatic complex with the basic amino acid residues of proteins under moderately acid conditions, which provides a sensitive linear response. […] Inhibition of cell proliferation was then measured by the classical colorimetric SRB Cell Cytotoxicity assay. Absorbance was measured by spectrophotometer at a wavelength of 510 nm and cell proliferation was determined as percent with respect to control cells (cells treated with the vehicle alone). EC50 values were then determined by GraphPad Prism.

[3] = test system: U2OS (human osteosarcoma); test: SRB Cell Cytotoxicity Assay; assay type: cell-based
Method: as §1

[4] = test system: HT1080 (human fibrosarcoma); test: SRB Cell Cytotoxicity Assay; assay type: cell-based
Method: as §1

[5] = test system: HT1080 (human fibrosarcoma); test: Matrigel cell invasion assay; assay type: cell-based; details: HT-1080
Method: Heparanase inhibitors were then evaluated for their activity on the invasive potential of HT1080 (human fibrosarcoma) human cell lines, using the Matrigel cell invasion assay which allows to assess the cell invasion ability of malignant and normal cells. Invasion assay was performed using BioCoat cell culture inserts (BioCoat 8.0µm PET Membrane 24 Well Permeable Supports, Corning). Filters were coated with 100 µl of 300 µg/ml Matrigel dissolved in coating buffer (0.01 M Tris pH 8.0, 0.7% NaCl) (Becton-Dickinson Sciences). DMEM (Dulbecco's Modified Eagle's Medium) containing 5% FBS was added to the lower chambers. Cells were pre-treated with heparanase inhibitors for 24 h, detached and added to the upper chambers in media containing the inhibitors. Cells were allowed to invade for 24 h at 37°C in a CO2 incubator and then unmigrated cells were removed from the upper chamber with a cotton swab. […] Test compounds were analyzed at fixed concentration for several fields, in duplicates. Activity of test compounds was compared to the reference compound. Activity of most interesting compound was confirmed in a second cell invasion assay. Data were expressed as the percent invasion with respect to cell migration through uncoated insert membrane. (Table 4) Table 4. […] In Invasion assay, data were expressed as the percent invasion (range) with respect to cell migration through uncoated insert membrane.

In the case of `Cn1cc(NC(=O)c2cccc(NC(=O)Nc3cccc(C(=O)Nc4cc(C(=O)Nc5ccc6c(S(=O)(=O)O)cccc6c5S(=O)(=O)O)n(C)c4)c3)c2)cc1C(=O)Nc1ccc2c(S(=O)(=O)[O-])cccc2c1S(=O)(=O)[O-].[Na+].[Na+]` [Example 1, Disodium 2,2'-{carbonylbis[imino-3,1-phenylenecarbonylimino(1-methyl-1H-pyrrole-4,2-diyl)carbonylimino]}dinaphthalene-1,5-disulfonate salt], the “Adhesion Assay (%) HT1080; 2.5 µM” value ([1]; 2.5 µM) is reported as “∼ 86%”.

With `O=C(Nc1cccc(C(=O)Nc2cc(C(=O)Nc3ccc4c(S(=O)(=O)[O-])cccc4c3S(=O)(=O)[O-])n(C3CC3)c2)c1)Nc1cccc(C(=O)Nc2cc(C(=O)Nc3ccc4c(S(=O)(=O)O)cccc4c3S(=O)(=O)O)n(C3CC3)c2)c1.[Na+].[Na+]` [Example 2, Disodium 2,2'-{carbonylbis[imino-3,1-phenylenecarbonylimino(1-cyclopropyl-1H-pyrrole-4,2-diyl)carbonylimino]}dinaphthalene-1,5-disulfonate salt] the “Adhesion Assay (%) HT1080; 2.5 µM” value ([1]; 2.5 µM) was “∼ 88%”.

`Cn1cc(NC(=O)Nc2cc(C(=O)Nc3cccc(C(=O)Nc4ccc5c(S(=O)(=O)O)cccc5c4S(=O)(=O)O)c3)n(C)c2)cc1C(=O)Nc1cccc(C(=O)Nc2ccc3c(S(=O)(=O)O)cccc3c2S(=O)(=O)O)c1` [Example 6, Disodium 2,2'-{carbonylbis[imino(1-methyl-1H-pyrrole-4,2-diyl)carbonylimino-3,1-phenylenecarbonylimino]}dinaphthalene-1,5-disulfonate salt] was tested, and the “silencing of heparanase gene (in words)” value (HPSE-1) was “almost complete silencing of heparanase gene”, the “Gene Expression (% mRNA vs. control) FGF-1” value (FGF-1) was “∼ 87%” and the “Gene Expression (% mRNA vs. control) MMP-9” value (MMP-9) was “∼ 80%”. The “Gene Expression (% mRNA vs. control) FGF-2” value (FGF-2) was “∼ 98%”, the “Gene Expression (% mRNA vs. control) VEGF” value (VEGF) was “∼ 85%” and the “Adhesion Assay (%) HT1080; 2.5 µM” value ([1]; 2.5 µM) was “∼ 86%”.

`Cn1cc(NC(=O)Nc2cc(C(=O)Nc3cc(C(=O)Nc4ccc5c(S(=O)(=O)O)cccc5c4S(=O)(=O)O)n(C)c3)n(C)c2)cc1C(=O)Nc1cc(C(=O)Nc2ccc3c(S(=O)(=O)O)cccc3c2S(=O)(=O)O)n(C)c1` [FCE27266, disodium 2,2'-{carbonylbis[imino(1-methyl-1H-pyrrole-4,2-diyl)carbonylimino(1-methyl-1H-pyrrole-4,2-diyl)carbonylimino]}dinaphthalene-1,5-disulfonate salt] was tested, and the “silencing of heparanase gene (in words)” value (HPSE-1) was “almost complete silencing of heparanase gene”, the “Gene Expression (% mRNA vs. control) FGF-1” value (FGF-1) was “∼ 44%” and the “Gene Expression (% mRNA vs. control) MMP-9” value (MMP-9) was “∼ 100%”. The “Gene Expression (% mRNA vs. control) FGF-2” value (FGF-2) was “∼ 86%”, the “Gene Expression (% mRNA vs. control) VEGF” value (VEGF) was “∼ 100%” and the “Adhesion Assay (%) HT1080; 2.5 µM” value ([1]; 2.5 µM) was “∼ 93%”.

With `Cc1ccc(C(=O)Nc2ccc(S(=O)(=O)O)c3cc(S(=O)(=O)O)cc(S(=O)(=O)O)c23)cc1NC(=O)c1cccc(NC(=O)Nc2cccc(C(=O)Nc3cc(C(=O)Nc4ccc(S(=O)(=O)O)c5cc(S(=O)(=O)O)cc(S(=O)(=O)O)c45)ccc3C)c2)c1` [Suramin, suramin] the IC50 ([2]; Homo sapiens, U-87 MG, 72h treatment, read-out: Concentration of test compounds at which the cell growth is inhibited by 50 % U87MG) was greater than 2500 nM, the “interference with the cell growth (in words)” value (from here on “interference”) ([2]; U87MG, tested up to 2.5 µM) was “do not interfere with the cell growth” and the IC50 ([3]; Homo sapiens, 72h treatment, read-out: Concentration of test compounds at which the cell growth is inhibited by 50 % U2OS) was greater than 2500 nM. For the same compound, the “interference” value ([3]; tested up to 2.5 µM) was “do not interfere with the cell growth”, the “interference” value ([4]; HT1080, tested up to 2.5 µM) was “do not interfere with the cell growth” and the IC50 ([4]; Homo sapiens, HT-1080, 72h treatment, read-out: Concentration of test compounds at which the cell growth is inhibited by 50 % HT1080) was greater than 2500 nM. The inhibition at 2.5 µM [5] was less than 50% and the “Adhesion Assay (%) HT1080; 2.5 µM” value ([1]; Reference compound (Suramin) at 10 µM according to b319) was “∼ 100%”.
